Experimental data taken from patent publication US20140303092A1 (CHIMERIX, INC., priority 2011, published 2014).
pEC50: −log10 of the molar value.

Assays:
[1] = Study HDP-CDV-112: mass balance and metabolite profiling of 14C-radiolabeled HDP-CDV; details: for metabolite AUC as share of total HDP-CDV-derived radioactivity AUC: plasma, through 24 h postdose
Description: The criteria for stopping urine and stool collection were assessed independently of each other.

HHV-6(B) = assay: In vitro antiviral activity in cell culture, HHV-6(B); type: cell-based, human herpesvirus 6; details: Human betaherpesvirus 6, B-cell
AdV = assay: In vitro antiviral activity in cell culture, AdV; type: cell-based; details: unidentified adenovirus
clinical = details: human, in vivo
Description: The pharmacokinetics of HDP-CDV (oral solution) were investigated in a dose-escalation study in healthy volunteers (Study HDP-CDV-102) in which single doses of up to 2 mg/kg and multiple doses (3 doses, each separated by 6 days) of up to 1 mg/kg were administered.

Compound | in vitro pharmacological activity and cytotoxicity compared to HDP-CDV (ectromelia) | percent dose excreted in urine ([1]; drug-derived metabolites) | metabolite AUC as share of total HDP-CDV-derived radioactivity AUC [1] | pEC50 (HHV-6(B)) | pEC50 (AdV) | Cmax and AUC versus dose (clinical) | accumulation on Day 12 (clinical) | time of Cmax after administration (clinical; po) | percent dose excreted in feces ([1]; drug-derived metabolites)
Nc1ccn(C[C@@H](CO)OCP(=O)(O)OCCCOCCCC(=O)O)c(=O)n1 [CMX064, 4-(3-propoxy)butanoic acid ester of CDV] | lower pharmacologic and cytotoxic activity | 10% | ~23% |  |  |  |  |  | 
Nc1nc(O)c2ncn(COC(CO)CO)c2n1 [Ganciclovir, ganciclovir] |  |  |  | 5.23 | 4.48 to 5.35 |  |  |  | 
Nc1ccn(C[C@@H](CO)OCP(=O)(O)O)c(=O)n1 [Cidofovir, cidofovir, reference compound] | lower pharmacologic and cytotoxic activity |  |  | 5.27 | 5.89 | increased approximately in proportion to dose | negligible accumulation | 9 to 15 h | 
Nc1ccn(CC(CO)OCP(=O)(O)OCCCO)c(=O)n1 (stereo not drawn) [CMX103, 3-hydroxypropyl ester of CDV] | lower pharmacologic and cytotoxic activity | 21% | approximately 32% |  |  |  |  |  | 6%
